Results on one compound are retold here after patent EP2535046A1 (priority 2011, dated 2012).

SMILES strings stand for the structures.

Series [1] relates to thymocytes and splenocytes. Set-up: species or system mice. Particulars: mouse, in vivo.
Series [2] has as its system Fkbp51. Set-up: species or system mice. Particulars: mouse, in vivo.
Series [3] relates to IL-6, CXCL10, IFN-γ and TNFα. Details: species or system mice. Particulars: mouse, in vivo.
In series [4] the test system is splenocytes subsets. Set-up: species or system mice. Particulars: mouse, in vivo.
Series [5] relates to nNOS. Details: species or system mice. Particulars: mouse, in vivo.
For series [6], the system named is STAT3, STAT3-P, ERK1/2, phosphorylated-ERK1/2 (Thr202/Tyr204). Set-up: species or system mice. Particulars: mouse, in vivo.
Series [7] relates to RABV CVS-NIV. Set-up: species or system C57BL/6J mice. As to conditions: mouse, in vivo.
For series [8] the following is noted: mouse, in vivo.
In series [9] the test system is RABV. Set-up: species or system mice. Particulars: mouse, in vivo.
Series [10] relates to RABV. Details: species or system mice. As to conditions: mouse, in vivo. This is another data set of the same source.

For the compound `CNC1(C)C2CCC(C2)C1(C)C` (stereo not drawn) [mecamylamine, N,2,3,3-Tetramethylbicyclo[2.2.1] heptan-2 amine], the number of splenocytes result in series [1] is listed as “increased the number of splenocytes”. In [1] (ip, 2 mg/kg), the “cellularity of the spleen (number of splenocytes)” value was “protects cellularity of the spleen” and the “number of thymocytes (RABV-mediated drop)” value is recorded as “no effect on the drop of thymocytes”. The “transcription of the glucocorticoid-inducible gene Fkbp51” value in series [2] is listed as “no effect”. Also, in series [3], the “IFN-γ and TNFα transcription in the spinal cord” value is recorded as “slowed-down”; the “IL6 or CXCL10 kinetic in the spinal cord” value is given as “no effect”; the “cytokines expression at transcriptional level (IL-6, CXCL10, IFN-γ, TNFα) in the brain” value is “did not modify significantly”; the “inflammatory cytokines expression in the liver” value is “No difference”. In series [4], the “main subsets of spleen cells (TCRαβ, CMH class II, CD4, CD8, plasmocytes expressing IgG)” value was “prevents the RABV-mediated disappearance”; the “numbers of CD4 T cells expressing CD25 and numbers of CD3 expressing CD69” value is listed as “restored”. In series [5], the “nNOS transcription in the brain” value is listed as “block the nNOS decrease”. Also, in series [6], the “expression and phosphorylation of STAT3 and ERK1/2 in the brain” value is “reduces expression and phosphorylation of STAT3 and ERK1/2 to levels similar to those observed in the non-infected brain”. In [7], the RABV pathogenesis result is reported as “did not modify RABV pathogenesis”, the clinical scores entry was “decreases the severity of the clinical scores” and the weight loss entry is “interrupted the weight loss”. Further, in series [8], the “side effects such as weight loss or behavior modification” value is reported as “does not induced obvious side effects”. In addition, the “effect on RABV specific neutralizing antibodies” value in series [9] is listed as “no effect”. For the same compound, the “RABV N protein transcripts among survivors” value in series [10] is “less viral transcripts than the mock-treated animals”.
